# ChEMBL document CHEMBL4483862, “Open-source discovery of chemical leads for next-generation chemoprotective antimalarials” (2018)
# Tested on: Plasmodium berghei
# Assay: Luciferase/luciferin-expressing antifolate-resistant parasites were used to infect a culture of HepG2 cells that were pre-incubated with compounds. Infected hepatocytes emit light due to the luciferase reaction. Assay results are presented as the percent inhibition of light emission compared to control. […]
# Type: functional
# Conditions: sporozoite; for IC50: read-out: LUCIFERASE INFECTION ASSAY - IC50; for IC90: read-out: LUCIFERASE INFECTION ASSAY - IC90
Compound,IC50 [µM],IC90 [µM]
O=[N+]([O-])c1ccc(NC2CCN(Cc3ccccc3)CC2)c2ccncc12,9.37,> 10
CCNC(=O)COc1ccc(/C=C2\COc3ccccc3C2=O)cc1OC,> 10,> 10
Cc1c(C(=O)NC2CCN(Cc3ccccc3)C2)oc2c(Cl)cccc12 (stereo not given),> 10,> 10
CC(=O)Nc1ccc(S(=O)(=O)NCCC(=O)OCc2ccccc2F)cc1,> 10,> 10
Cc1ccc(NC(=O)COc2ccc(CCO)cc2-n2nc3ccccc3n2)cc1C,> 10,> 10
Cc1ccc(SCCNS(=O)(=O)c2ccc(F)cc2)cc1,> 10.1,> 10.1
Cc1nc(N2CCN(Cc3ccccc3)CC2)nc2c1C(=O)CC(C)C2 (stereo not given),> 9.42,> 9.42
O=C1c2cccc3c([N+](=O)[O-])ccc(c23)C(=O)N1Cc1cccnc1,> 9.9,> 9.9
Clc1ccc(SCc2cc(N3CCOCC3)nc(-c3ccccn3)n2)cc1,4.81,4.86
Cc1cc(C(C)(C)C)cc(C)c1CCNC(=O)c1ccc[n+]([O-])c1,> 10,> 10
CCOC(=O)c1c(NC(=O)C[n+]2ccc(Cc3ccccc3)cc2)sc(C)c1C,3.79,8.6
Cc1sc2ncnc(Sc3nnc(C(F)(F)F)n3C)c2c1C,> 10,> 10
C/C(=N\Nc1nc2ccccc2[nH]1)c1ccc2c(c1)OCO2,4.04,4.99
O=C(O)c1ccc(CN2C(=O)CCC2=O)cc1,> 10,> 10
FC(F)(F)c1ccc(C2c3ccsc3CCN2C(=S)Nc2ccc(Cl)cc2Cl)cc1 (stereo not given),4.24,> 6.77
O=c1c2ccccc2nc2c3ccccc3c(NCCCN3CCOCC3)nn12,9.05,> 10
CC(=O)NC(C)c1ccc(C2=NNC(=Nc3cccc(Cl)c3C)SC2)cc1 (stereo not given),> 10,> 10
N#Cc1c(Cl)c2ccccc2[nH]c1=O,14.9,> 16.1
Cc1nn2c(=O)c(Cc3ccccc3Cl)c(C)[nH]c2c1-c1ccccc1,2.68,2.97
COc1ccccc1-c1nnc(SCc2cc(=O)c(O)co2)n1C,> 10,> 10
COc1ccc(OCCN(C)C(=O)c2ccc(-n3cccn3)cc2)cc1,> 10,> 10
N#C/C(=N\Nc1ccc(F)c(Cl)c1)C(=O)c1ccc(Cl)cc1,1.07,1.26
CCCCCC1C(O)CC(c2ccccc2)N(C)C1c1ccccc1 (stereo not given),> 9.78,> 9.78

Compound,IC50 [µM],IC90 [µM]
O=C(Nc1ccc(Cl)cc1)Nc1cc(Cl)sc1Cl,3.09,3.79
O=C(Nc1ccc(F)cc1)OCCSc1ccc([N+](=O)[O-])c2nonc12,> 8.72,> 8.72
O=C(NCC#Cc1ccccc1)c1cccc2cccnc12,> 10,> 10
Cc1cc(C(=O)OCC(=O)c2ccc[nH]2)c2c(C)noc2n1,> 10,> 10
CCC(C)(C)C1CCC(NC(=O)N(C)CC(=O)Nc2c(C)cccc2C)CC1 (stereo not given),> 10,> 10
CCOC(=O)c1cc(C#N)c(SCC(=O)Nc2ccccc2CC)nc1C,> 10,> 10
Cc1ccc(-c2csc(NCSc3cccc4cccnc34)n2)cc1,> 10,> 10
FC(F)(F)c1ccc(Nc2ccc3c(c2)CCC3)nc1,> 10,> 10
CCOc1ccccc1NC(=O)CSc1nnc2cc(C)c3ccccc3n12,> 10,> 10
N#Cc1ccc(CN2CCN(c3ccc(-c4nc5ccccc5[nH]4)cn3)CC2)cc1,> 10,> 10
CCN(CCC#N)c1ccc(/C=C2/C(=O)Nc3cc(Cl)ccc32)c(C)c1,> 10,> 10
O=C1CN(C(=O)COc2ccc(F)cc2Br)CCN1,> 10,> 10
CCCCNC(=O)Nc1ccn(C)n1,> 16.8,> 16.8
Cc1nn2c(=O)cc(C(C)C)[nH]c2c1-c1ccc(F)cc1,> 11.6,> 11.6
O=C(c1c[nH]c2ccccc12)C(NCc1ccc(F)cc1)c1ccccc1 (stereo not given),> 10,> 10
Cc1ccsc1C(=O)OCC(=O)Nc1cc(C(C)(C)C)no1,> 10,> 10
Fc1ccc(-c2nc3ccc(Cl)cc3[nH]2)cc1,> 13.4,> 13.4
CCNc1nnc(SC(C)C(=O)Nc2ccc(OC(F)F)cc2)s1 (stereo not given),> 10,> 10
COc1ccc(C(c2ccc(N(C)C)cc2)c2ccc(N(C)C)cc2)c(C)c1C,> 8.49,> 8.49
CC(=O)N[C@H]1[C@@H](OC(C)=O)O[C@H](COC(c2ccccc2)(c2ccccc2)c2ccccc2)[C@@H](OC(C)=O)[C@@H]1OC(C)=O,> 5.6,> 5.6
Cc1ccc(C2Nc3ccccc3C(=O)N2C(C)c2ccccc2)o1 (stereo not given),> 10,> 10
CC(C)(C)c1cc(C(c2ccccn2)N2CCCC2)cc(C(C)(C)C)c1O (stereo not given),> 10,> 10
Cc1nc2ccccn2c1C(=O)N/N=C/c1ccccc1O,10.1,> 11.2

Compound,IC50 [µM],IC90 [µM]
CNS(=O)(=O)c1ccc(NC(=O)c2ccc3[nH]c(C)c(C)c3c2)cc1,> 10,> 10
CCOC(=O)c1cnn(-c2c(Cl)cc(Cl)cc2Cl)c1-c1ccccc1,> 8.34,> 8.34
O=[N+]([O-])c1ccc(Nc2cccc(OC3CCCC3)c2)nc1,> 10,> 10
CC(C)CN1CCOC(CSc2nc3sc4c(c3c(=O)n2C)CCC4)C1 (stereo not given),> 10,> 10
O=C1CCCN1c1cccc(Oc2nc(-c3cccnc3)nc3ccccc23)c1,> 10,> 10
Cc1ccc2c(c1)CCCN2CC(=O)Nc1sccc1C(N)=O,> 10,> 10
O=c1cc(CNc2ccccc2N2CCCCC2)nc2sccn12,9.19,> 10
O=c1c2sccc2ncn1Cc1cc(-c2cccs2)on1,> 10,> 10
Cc1ccc(-n2nnnc2-c2cnc3ccccc3c2-c2ccccc2)cc1,> 9.08,> 9.08
CCN(CC)C(=S)SCC(=O)c1cc(C)n(-c2ccccc2)c1C,4.85,> 10
OCCNc1nc(Sc2ccc(Cl)cc2)nc2ccccc12,> 10,> 10
COc1ccc(C)cc1CCNC(=O)c1cc(C2CC2)nn1-c1ccccc1,> 10,> 10
O=C(Nc1ccc(-c2nccs2)cc1)c1cc(Br)c[nH]1,7.5,> 10
CC(C)c1ccc(-c2noc(CCC(=O)Nc3ccn(C)n3)n2)cc1,> 10,> 10
CC(Nc1ccc2c(c1)OC(F)(F)O2)C(=O)Nc1ccc(Cl)cn1 (stereo not given),> 10,> 10
CCc1[nH]c(=O)c(C#N)c(-c2ccccc2)c1C(=O)OC,> 11.7,> 11.7
Cc1nc2ccccc2c(=O)n1-c1ccc(C(=O)NCCCc2ccccc2)cc1,> 10,> 10
O=S(=O)(Nc1cccc(-c2ncon2)c1)c1cc(C(F)(F)F)cc(C(F)(F)F)c1,0.531,> 7.55
Cc1nc(NCCSc2nccn2C)c2c(-c3ccccc3)csc2n1,> 10,> 10
Cc1cc(-c2ccc(Cl)cc2)nc2c1c(C)nn2CCO,4.08,> 10
O=C(CCc1nc2ccccc2n(CCc2ccccc2)c1=O)N1CCC1,> 10,> 10
Cc1sc2ncnc(NC(C)C(=O)Nc3ccc4c(c3)OCCCO4)c2c1C (stereo not given),8.08,> 10
COc1ccc(CCNC(=O)COC(=O)c2sc(C)nc2C)cc1,> 10,> 10

Compound,IC50 [µM],IC90 [µM]
O=C(Nc1ncccc1O)c1ccc(-c2ccc3c(c2)OCCO3)s1,7.42,> 10
CCc1sc(C(=O)Nc2nc(-c3ccc(CNC(C)=O)cc3)cs2)cc1C,> 10,> 10
CC1CCCCC1NC(=O)c1c[nH]c2ccc(Br)cc12 (stereo not given),> 10,> 10
CSc1nc2ccc(NC(=O)c3cn4ccccc4n3)cc2s1,3.18,> 10
COc1ccc(CNC(=O)c2ccc3c(c2)NC(=O)C(C)S3)cc1OC (stereo not given),> 10,> 10
COc1ccc(CNc2ncnc3ccsc23)cc1,8.88,> 10
CC(C(=O)Nc1cccc(C#Cc2cccs2)c1)n1cnc2ccccc21 (stereo not given),> 10,> 10
COc1ccc(OCCN2CCN(C(C)C(=O)Nc3sccc3C(N)=O)CC2)cc1 (stereo not given),> 10,> 10
O=C(Nc1nc2ccccc2[nH]1)C(Sc1ccccc1)c1ccccc1 (stereo not given),> 10,> 10
Cc1ccc(NC(=O)CN2CCN(Cc3c(O)ccc4ccncc34)CC2)cc1,> 10,> 10
Clc1ccc(-c2nnc(-c3cc(Cl)cc(Cl)c3)o2)cc1,> 10.1,> 10.1
COc1ccc(/C=C2\CCCc3c2nc2ncnn2c3-c2ccc(OC)cc2)cc1,> 10,> 10
N#C/C(=N\Nc1ccc(F)cc1)C(=O)c1ccc(Cl)cc1,9.59,> 10.9
COc1ccc2oc(C(=O)Nc3nnc(C(C)C)s3)c(C)c2c1,4.49,> 10
O=C(NC(c1ccccc1O)C(NC(=O)c1ccccc1)c1ccccc1O)c1ccccc1 (stereo not given),> 7.29,> 7.29
Cc1nc(SCc2nc(-c3cccs3)no2)c(C#N)c(C)c1C,0.0298,0.683
Cc1ccc(C2NC(=S)NC3=C2C(=O)c2ccccc23)cc1 (stereo not given),> 10.8,> 10.8
CC1CCC2(CC1)NC(=O)N(CC(=O)NCC(F)(F)F)C2=O (stereo not given),> 10,> 10
O=[N+]([O-])c1ccc(SCCOS(=O)(=O)c2cccc(C(F)(F)F)c2)c2nonc12,> 7.34,> 7.34
O=C(Nc1nc2c(s1)CCc1ccccc1-2)c1cccc(-n2cnnn2)c1,> 10,> 10
Cc1sc2nc(-c3cccnc3)nc(NCC(c3ccco3)N(C)C)c2c1C (stereo not given),> 10,> 10
